This note sets out measurements from patent US20210038559A1, “CANNABINOIDS AND DERIVATIVES FOR PROMOTING IMMUNOGENICITY OF TUMOR AND INFECTED CELLS” (priority 2018, published 2021).

Data set [1] has as its system MHC class I expression, mouse Lewis lung carcinoma cell line A9. The experiment in a line: MHC class I expression in mouse A9 Lewis lung carcinoma cells, 24 hours, flow cytometry. In kind it is cell-based. The note with it: 100 ng/ml, positive control. The protocol:
FIG. 1A-1B. Cannabigerol stimulates MHC class I expression in the mouse A9 Lewis lung carcinoma (FIG. 1A) and the human COLO 205 colorectal carcinoma (FIG. 1B) cell lines. Cells were treated for 24 hours with 21.2 μM (A) or 25 and 50 μM (FIG. 1B) cannabigerol.
Cannabigerol, a representative cannabinoid, was tested for its ability to also stimulate MHC class I expression in mammalian cancer cell lines. The mouse Lewis lung carcinoma cell line, A9, was treated with 21 μM of cannabigerol for 24 hours prior to flow cytometric analysis of cell surface expression of MHC class I expression levels using the MHC class I antibody W6/32 (Thermo Fisher). Control conditions included the vehicle, dimethyl sulfoxide (DMSO, 1%) alone, and 100 ng/ml of trichostatin A (TSA), a histone deacetylase inhibitor and known inducer of MHC class I expression in mammalian cells. […] The positive control, TSA, stimulated expression by 2.4-fold.
(In flow cytometry, cells or beads pass a laser one at a time.)

Data set [2] relates to MHC-I expression, human cancer cell lines. The experiment in a line: MHC-I expression restoration by IFN-γ in human cancer cell lines. It is filed as cell-based. The note with it: 48 hours. The protocol: (§1) FIG. 3A-3B. […] MHC-I downregulation is reversible in the majority of human and mouse cancer cell lines.
(§2) MHC-I expression may be restored in cancers, such as those with intact antigen processing machinery (APM) genes. Various human and mouse cancer cell lines were treated with dose titrations of recombinant human and mouse IFN-γ, respectively. The cells were incubated with IFN-γ for 48 hours in a humidified chamber at 37° C., stained with fluorescent haplotype-appropriate MHC-I antibody, then signal was determined by flow cytometry. Cancers represented in this experiment include brain (SK-N-MC), breast (4T1, EMT6), colorectal (COLO 205, SNU-C1, DLD-1, LS123, LS411N, LoVo, CT26, MC38), kidney (Renca), lung (NCI-H146, LLC), lymphoid (A20), and skin (A431, SK-MEL-2, B16F10). IFN-γ induced MHC-I expression in a dose-dependent manner in 6/10 (60%) human and 6/9 mouse (67%) cell lines. […] The results are found in FIGS. 3A-3B.

Data set [3] relates to MHC class I expression on COLO 205 cells. The data set is described as follows: MHC class I expression on COLO 205 cells, 24 hours, flow cytometry (W6/32). The note with it: for fold induction at 10 µM / fold induction at 20 µM / fold induction at 30 µM / fold induction at 40 µM: Homo sapiens, COLO 205. The protocol:
FIG. 2A-2F. […] Cells were treated for 24 hours and cell surface MHC class I expression was measured by flow cytometry.
Cannabigerol was also tested for its capacity to induce MHC class I expression in a human colorectal carcinoma cell line, COLO 205. The cells were treated with either 25 μM or 50 μM cannabigerol for 24 hours. Fluorophor (Alexa Fluor 488)-conjugated W6/32 antibody (Thermo Fisher) was used in a flow cytometry assay to quantitate MHC class I expression. […] Cannabigerol is only one of many cannabinoid-like molecules with potential biopharmaceutical activity. […] COLO 205 cells were treated with up to 40 μM of the cannabinoids 1-5 presented in Tables 1 and 2 and evaluated for cell surface MHC class I expression as described above for cannabigerol.

Data set [4] concerns MHC-I expression, mouse cancer cell lines. The experiment in a line: MHC-I expression restoration by IFN-γ in mouse cancer cell lines. The settings on record: 48 hours. It is filed as cell-based. The protocol:
as §1, §2

The test system of data set [5] is MHC-I expression on COLO 205 cells. The data set is described as follows: Phytocannabinoid MHC-I induction on COLO 205 cells, 0-100 μM, 48 hours. The note with it: for EC50: Homo sapiens, COLO 205, 48 h; for Fold Induction: MHC-I expression on COLO 205 cells, 0-100 μM, 48 hours, relative to control cells treated only with buffer; for MHC-I expression induction: COLO 205, endogenous cannabinoids. The method, then: FIG. 4. Cell surface MHC class I expression was measured by flow cytometry (MFI).
Phytocannabinoids were tested for MHC-I-inducing activity on COLO 205 cells. Each cannabinoid was tested at a concentration range of 0-100 μM. […] “ND” indicates not determined.

Data set [6] relates to MHC-I expression, COLO 205 cells. The data set is described as follows: Time course of MHC-I expression in CBD-treated COLO 205 cells. The note with it: COLO 205, 15 μM. In kind it is cell-based, human. The method, then:
FIG. 5. MHC-I expression (MFI) is induced over time in CBD-treated COLO 205 cells.
To determine whether changes in gene expression play a role in cannabinoid-induced MHC-I expression, COLO 205 cells were incubated with 15 μM CBD and cells were harvested at 6, 12, 24, and 48 hours for determination of MHC-I expression by flow cytometry.

Where [7] appears, read: COLO 205, 10 μM, W6/32 staining.
The mark [8] stands for this setting: COLO 205, 20 μM, W6/32 staining.
Where [9] appears, read: COLO 205, 30 μM, W6/32 staining.
Where [10] appears, read: COLO 205, 40 μM, W6/32 staining.

Some results are limits rather than exact numbers.

For orientation: EC50 means the midpoint of the concentration-response curve. The fold induction is the signal under treatment as a multiple of the control signal.

For the compound `CC(/C=C/C(=O)NO)=C\[C@@H](C)C(=O)c1ccc(N(C)C)cc1` [TSA, trichostatin A, reference compound], the “increase in MHC class I expression” value in data set [1] amounted to 2.4 fold.

“Interferon-γ: a natural cytokine known to stimulate MHC class I expression in many mammalian cells”: the “cell lines with dose-dependent induction of MHC-I expression” value in data set [2] is reported as 6/10; in data set [4], 6/9. In addition, the MFI in data set [3] (COLO 205, 0.004 ng/mL) is given as 119; in data set [3] (COLO 205, 0.012 ng/mL), 193; in data set [3] (COLO 205, 0.040 ng/mL) it was 250; in data set [3] (COLO 205, 0.110 ng/mL) it was 321; in data set [3] (COLO 205, 1.000 ng/mL) it was 483; in data set [3] (COLO 205, 3.000 ng/mL), 482. In addition, the “increase in MHC class I expression (maximum)” value in data set [3] (COLO 205, interferon-γ reference) is listed as at most 4 fold.

Regarding `CCCc1cc(O)c2c(c1)OC(C)(C)[C@@H]1CCC(C)=C[C@@H]21` [Example 5, 6aR,7,8,10aR-tetrahydro-6,6,9-trimethyl-3-propyl-6H-dibenzo[b,d]pyran-1-ol], in data set [5], a half-maximal response (EC50) required 15 µM and the “Fold Induction” value is 3.0 Fold. In data set [3] (setting [7]), this compound came in with an MFI of 152. In addition, the MFI in data set [3] (setting [8]) was 192. In data set [3] (setting [9]), this compound had an MFI of 235. Also, the MFI in data set [3] (setting [10]) came to 242. Further, in data set [3], the fold induction at 10 µM was found to be 1.26, the fold induction at 20 µM came to 1.59, the fold induction at 30 µM is 1.94 and the fold induction at 40 µM came to 2.

`CCCCCc1cc2c3c(c1)OC(C)(C)C1CCC(C)(CC31)O2` (stereo not drawn) [Example 382, (6aα,9β,10aα)-6a,7,8,9,10,10a-hexahydro-6,6,9-trimethyl-3-pentyl-1,9-epoxy-6H-dibenzo[b,d]pyran]: the “Fold Induction” value in data set [5] came out at 1.3 Fold.

In data set [5], `C=C(C)[C@@H]1CCC(C)=CC1c1c(O)cc(CCCCC)cc1O` (stereo partly drawn) [Example 2, 2-[1R-3-methyl-6R-(1-methylethenyl)-2-cyclohexen-1-yl]-5-pentyl-1,3-benzenediol] showed an EC50 of 10 µM. Moreover, the “Fold Induction” value in data set [5] came out at 2.8 Fold. The MHC-I expression result in data set [6] (48 hr) was “robust induction”; in data set [6] (by 24 hours), “slight increase”. Further, the MFI in data set [3] (setting [7]) came to 141; in data set [3] (setting [8]), 205; in data set [3] (setting [9]), 199; in data set [3] (setting [10]), 82. Moreover, the fold induction at 10 µM in data set [3] is 1.17. The fold induction at 20 µM in data set [3] amounted to 1.69. Further, the fold induction at 30 µM in data set [3] was 1.64. In addition, in data set [3], the fold induction at 40 µM is 0.68.

Consider `CCCCCc1cc(O)c2c(c1)OC(C)(C)c1ccc(C)cc1-2` [Example 4, 6,6,9-trimethyl-3-pentyl-6H-dibenzo[b,d]pyran-1-ol], for which, in data set [5], the response was half-maximal at 25 µM (EC50) and the “Fold Induction” value came out at 1.8 Fold. In data set [3] (setting [7]), this compound had an MFI of 120. For the same compound, in data set [3] (setting [8]), the MFI is 160. Moreover, the MFI in data set [3] (setting [9]) is listed as 253. Besides, in data set [3] (setting [10]), the MFI was found to be 253. For the same compound, in data set [3], the fold induction at 10 µM stood at 0.99, the fold induction at 20 µM turned out to be 1.32, the fold induction at 30 µM turned out to be 2.09 and the fold induction at 40 µM was determined as 2.09.

For the compound `CCCCCc1cc(O)c2c(c1)OC(C)(CCC=C(C)C)C=C2` (stereo not drawn) [Example 3, 2-methyl-2-(4-methyl-3-penten-1-yl)-7-pentyl-2H-1-benzopyran-5-ol], in data set [5], the midpoint of the response, the EC50, lay at 20 µM and the “Fold Induction” value was determined as 1.6 Fold. Besides, in data set [3] (setting [7]), the MFI worked out at 120. In data set [3] (setting [8]), the MFI amounted to 148. In data set [3] (setting [9]), this compound registered an MFI of 177. For the same compound, the MFI in data set [3] (setting [10]) is reported as 280. Further, in data set [3], the fold induction at 10 µM came to 0.99, the fold induction at 20 µM worked out at 1.22, the fold induction at 30 µM worked out at 1.46 and the fold induction at 40 µM was found to be 2.31.

As to `CCCCC/C=C\C/C=C\C/C=C\C/C=C\CCCC(=O)NCCO` [AEA, N-arachidonoylethanolamine, reference compound], in data set [5], the “MHC-I expression induction” value was “do not induce MHC-I expression”.

Regarding `CCCCCc1cc(OC)c2c(c1)OC(C)(C)c1ccc(C)cc1-2` [Example 387, 1-methoxy-6,6,9-trimethyl-3-pentyl-6H-dibenzo[b,d]pyran], in data set [5], the EC50 came out at 30 µM and the “Fold Induction” value came to 2.3 Fold.

`CC(C)=CCC/C(C)=C/Cc1c(O)cc(C)c(C(=O)O)c1O` [Example 389, 3-[(2E)-3,7-dimethyl-2,6-octadien-1-yl]-2,4-dihydroxy-6-methyl-benzoic acid]: in data set [5], the “Fold Induction” value amounted to 2.6 Fold.

As to `CCCCC/C=C\C/C=C\C/C=C\C/C=C\CCCC(=O)OC(CO)CO` [Example 2-AG, 2-Arachidonoylglycerol, reference compound], the “MHC-I expression induction” value in data set [5] is “do not induce MHC-I expression”.

In the case of `CC(C)=CCC/C(C)=C/Cc1c(O)cc(C)cc1O` [Example 388, 2-[(2E)-3,7-dimethyl-2,6-octadien-1-yl]-5-methyl-1,3-benzenediol], in data set [5], the EC50 stood at 36 µM and the “Fold Induction” value is 2.7 Fold.
